From PubChem BioAssay AID1963845 (Molecular Pharmacology Branch, DTP, NCI, 2024)

Tested on: 429239-143-T-J1-PDC complex spheroid viability
Experiment: Anticancer human tumor 429239-143-T-J1-PDC patient-derived small cell lung carcinoma cell line growth inhibition [POLQ]
Conditions: for IC50: curve of first compound; for viability, T/C: stronger effect = lower value
Summary of the method: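 Growth inhibition in 3D: complex spheroids (tumor PDC, HUVEC, MSC) treated with POLQ inhibitor combinations; where Cmax unknown, highest tested concentration 10 microM, except SN-38 at 1 microM.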

[1] = second compound 0.0316 µM, first compound 0.00316 µM
[2] = second compound 0.0316 µM, first compound 0.01 µM
[3] = second compound 0.0316 µM, first compound 0.0316 µM
[4] = second compound 0.0316 µM, first compound 0.1 µM
[5] = second compound 0.1 µM, first compound 0.00316 µM
[6] = second compound 0.1 µM, first compound 0.01 µM
[7] = second compound 0.1 µM, first compound 0.0316 µM
[8] = second compound 0.1 µM, first compound 0.1 µM
[9] = second compound 0.316 µM, first compound 0.00316 µM
[10] = second compound 0.316 µM, first compound 0.01 µM
[11] = second compound 0.316 µM, first compound 0.0316 µM
[12] = second compound 0.316 µM, first compound 0.1 µM
[13] = second compound 1 µM, first compound 0.00316 µM
[14] = second compound 1 µM, first compound 0.01 µM
[15] = second compound 1 µM, first compound 0.0316 µM
[16] = second compound 1 µM, first compound 0.1 µM
[17] = second compound 3.16 µM, first compound 0.00316 µM
[18] = second compound 3.16 µM, first compound 0.01 µM
[19] = second compound 3.16 µM, first compound 0.0316 µM
[20] = second compound 3.16 µM, first compound 0.1 µM
[21] = second compound 10 µM, first compound 0.00316 µM
[22] = second compound 10 µM, first compound 0.01 µM
[23] = second compound 10 µM, first compound 0.0316 µM
[24] = second compound 10 µM, first compound 0.1 µM
[25] = second compound 0.0316 µM, first compound 0.316 µM
[26] = second compound 0.0316 µM, first compound 1 µM
[27] = second compound 0.0316 µM, first compound 3.16 µM
[28] = second compound 0.0316 µM, first compound 10 µM
[29] = second compound 0.1 µM, first compound 0.316 µM
[30] = second compound 0.1 µM, first compound 1 µM
[31] = second compound 0.1 µM, first compound 3.16 µM
[32] = second compound 0.1 µM, first compound 10 µM
[33] = second compound 0.316 µM, first compound 0.316 µM
[34] = second compound 0.316 µM, first compound 1 µM
[35] = second compound 0.316 µM, first compound 3.16 µM
[36] = second compound 0.316 µM, first compound 10 µM
[37] = second compound 1 µM, first compound 0.316 µM
[38] = second compound 1 µM, first compound 1 µM
[39] = second compound 1 µM, first compound 3.16 µM
[40] = second compound 1 µM, first compound 10 µM
[41] = second compound 3.16 µM, first compound 0.316 µM
[42] = second compound 3.16 µM, first compound 1 µM
[43] = second compound 3.16 µM, first compound 3.16 µM
[44] = second compound 3.16 µM, first compound 10 µM
[45] = second compound 10 µM, first compound 0.316 µM
[46] = second compound 10 µM, first compound 1 µM
[47] = second compound 10 µM, first compound 3.16 µM
[48] = second compound 10 µM, first compound 10 µM
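Further: luminescence signal used as surrogate measure of viable cells; spheroids exposed to compounds for seven days before readout.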
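Wherever viability, T/C is given: 100% = DMSO vehicle control viability as luminescence relative to vehicle.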

## CC[C@@]1(O)C(=O)OCc2c1cc1n(c2=O)Cc2cc3c(CN(C)C)c(O)ccc3nc2-1 + Cc1cccc(N(C)C(=O)C2C(O)CCN2c2nc(C)cc(C(F)(F)F)c2C#N)c1
Second compound 0.0316 µM
  IC50: 10.5 nM
Second compound 0.1 µM
  IC50: 15.5 nM
Second compound 0.316 µM
  IC50: 15.5 nM
Second compound 1 µM
  IC50: 15.3 nM
Second compound 3.16 µM
  IC50: 12.7 nM
Second compound 10 µM
  IC50: 12.8 nM
Second compound 0.0316 µM, first compound 0.000316 µM
  viability, T/C: 102%
Second compound 0.0316 µM, first compound 0.001 µM
  viability, T/C: 98.8%
[1]
  viability, T/C: 94.6%
[2]
  viability, T/C: 51.7%
[3]
  viability, T/C: 18.5%
[4]
  viability, T/C: 18.2%
Second compound 0.1 µM, first compound 0.000316 µM
  viability, T/C: 100%
Second compound 0.1 µM, first compound 0.001 µM
  viability, T/C: 106%
[5]
  viability, T/C: 96.3%
[6]
  viability, T/C: 69.9%
[7]
  viability, T/C: 15.8%
[8]
  viability, T/C: 18.5%
Second compound 0.316 µM, first compound 0.000316 µM
  viability, T/C: 102%
Second compound 0.316 µM, first compound 0.001 µM
  viability, T/C: 107%
[9]
  viability, T/C: 88.7%
[10]
  viability, T/C: 70.3%
[11]
  viability, T/C: 14.9%
[12]
  viability, T/C: 18.3%
Second compound 1 µM, first compound 0.000316 µM
  viability, T/C: 99.1%
Second compound 1 µM, first compound 0.001 µM
  viability, T/C: 105%
[13]
  viability, T/C: 103%
[14]
  viability, T/C: 68.8%
[15]
  viability, T/C: 17.9%
[16]
  viability, T/C: 16.9%
Second compound 3.16 µM, first compound 0.000316 µM
  viability, T/C: 106%
Second compound 3.16 µM, first compound 0.001 µM
  viability, T/C: 90.4%
[17]
  viability, T/C: 94.2%
[18]
  viability, T/C: 58%
[19]
  viability, T/C: 19.3%
[20]
  viability, T/C: 18.9%
Second compound 10 µM, first compound 0.000316 µM
  viability, T/C: 101%
Second compound 10 µM, first compound 0.001 µM
  viability, T/C: 96.2%
[21]
  viability, T/C: 94.3%
[22]
  viability, T/C: 57.9%
[23]
  viability, T/C: 20.4%
[24]
  viability, T/C: 19.6%

## CCc1cc2c(N3CCc4c(cc(Cn5ccnc5)cc4-c4cn(C)nc4C(F)(F)F)C3=O)ccnc2c(OC)n1 + COC1C(OC(N)=O)C(O)C(Oc2ccc3c(O)c(NC(=O)c4ccc(O)c(CC=C(C)C)c4)c(=O)oc3c2C)OC1(C)C
Second compound 0.0316 µM
  IC50: 2760 nM
Second compound 0.1 µM
  IC50: 2630 nM
Second compound 0.316 µM
  IC50: 2660 nM
Second compound 1 µM
  IC50: 2270 nM
Second compound 3.16 µM
  IC50: 1720 nM
Second compound 10 µM
  IC50: 843 nM
[3]
  viability, T/C: 93.4%
[4]
  viability, T/C: 96.9%
[25]
  viability, T/C: 71.1%
[26]
  viability, T/C: 68.2%
[27]
  viability, T/C: 45.8%
[28]
  viability, T/C: 39.6%
[7]
  viability, T/C: 107%
[8]
  viability, T/C: 93%
[29]
  viability, T/C: 69.5%
[30]
  viability, T/C: 74%
[31]
  viability, T/C: 42.3%
[32]
  viability, T/C: 32.6%
[11]
  viability, T/C: 86.2%
[12]
  viability, T/C: 74.3%
[33]
  viability, T/C: 73.5%
[34]
  viability, T/C: 65.5%
[35]
  viability, T/C: 45.1%
[36]
  viability, T/C: 33.4%
[15]
  viability, T/C: 89.7%
[16]
  viability, T/C: 83.9%
[37]
  viability, T/C: 61.8%
[38]
  viability, T/C: 62%
[39]
  viability, T/C: 49.2%
[40]
  viability, T/C: 32.8%
[19]
  viability, T/C: 96.7%
[20]
  viability, T/C: 74.8%
[41]
  viability, T/C: 71.5%
[42]
  viability, T/C: 50.5%
[43]
  viability, T/C: 46.4%
[44]
  viability, T/C: 37.3%
[23]
  viability, T/C: 91.8%
[24]
  viability, T/C: 85.7%
[45]
  viability, T/C: 67.8%
[46]
  viability, T/C: 46.7%
[47]
  viability, T/C: 40.2%
[48]
  viability, T/C: 39.6%

## CCc1c2c(nc3ccc(O)cc13)-c1cc3c(c(=O)n1C2)COC(=O)[C@]3(O)CC + Nc1ccc(C#CCN(C(=O)Cc2ncc(C(F)(F)F)cc2C(F)(F)F)c2ccc(F)cc2)nn1
Second compound 0.0316 µM
  IC50: < 3.16 nM
Second compound 0.1 µM
  IC50: < 3.16 nM
Second compound 0.316 µM
  IC50: < 3.16 nM
Second compound 1 µM
  IC50: < 3.16 nM
Second compound 3.16 µM
  IC50: < 3.16 nM
Second compound 10 µM
  IC50: < 3.16 nM
[1]
  viability, T/C: 12%
[2]
  viability, T/C: 8.29%
[3]
  viability, T/C: 7.72%
[4]
  viability, T/C: 6.64%
[25]
  viability, T/C: 4.44%
[26]
  viability, T/C: 1.99%
[5]
  viability, T/C: 10.2%
[6]
  viability, T/C: 7.32%
[7]
  viability, T/C: 7.97%
[8]
  viability, T/C: 6.96%
[29]
  viability, T/C: 4.07%
[30]
  viability, T/C: 3.28%
[9]
  viability, T/C: 8.87%
[10]
  viability, T/C: 7.47%
[11]
  viability, T/C: 6.42%
[12]
  viability, T/C: 7.02%
[33]
  viability, T/C: 6%
[34]
  viability, T/C: 3.04%
[13]
  viability, T/C: 8.25%
[14]
  viability, T/C: 8.49%
[15]
  viability, T/C: 7.35%
[16]
  viability, T/C: 7.22%
[37]
  viability, T/C: 4.56%
[38]
  viability, T/C: 1.52%
[17]
  viability, T/C: 8.61%
[18]
  viability, T/C: 7.3%
[19]
  viability, T/C: 8.79%
[20]
  viability, T/C: 8.33%
[41]
  viability, T/C: 4.53%
[42]
  viability, T/C: 2.41%
[21]
  viability, T/C: 6.48%
[22]
  viability, T/C: 7.39%
[23]
  viability, T/C: 8.55%
[24]
  viability, T/C: 6.94%
[45]
  viability, T/C: 4.47%
[46]
  viability, T/C: 1.68%

## CC(C)n1c(=O)n(C)c2cnc3cc(F)c(-c4ccc(OCCCN5CCCCC5)nc4)cc3c21 + Nc1ccc(C#CCN(C(=O)Cc2ncc(C(F)(F)F)cc2C(F)(F)F)c2ccc(F)cc2)nn1
Second compound 0.0316 µM
  IC50: > 10000 nM
Second compound 0.1 µM
  IC50: > 10000 nM
Second compound 0.316 µM
  IC50: > 10000 nM
Second compound 1 µM
  IC50: > 10000 nM
Second compound 3.16 µM
  IC50: > 10000 nM
Second compound 10 µM
  IC50: > 10000 nM
[3]
  viability, T/C: 98.5%
[4]
  viability, T/C: 107%
[25]
  viability, T/C: 92.2%
[26]
  viability, T/C: 109%
[27]
  viability, T/C: 102%
[28]
  viability, T/C: 97.8%
[7]
  viability, T/C: 102%
[8]
  viability, T/C: 105%
[29]
  viability, T/C: 99.9%
[30]
  viability, T/C: 102%
[31]
  viability, T/C: 106%
[32]
  viability, T/C: 90.9%
[11]
  viability, T/C: 101%
[12]
  viability, T/C: 107%
[33]
  viability, T/C: 93.3%
[34]
  viability, T/C: 104%
[35]
  viability, T/C: 106%
[36]
  viability, T/C: 91.1%
[15]
  viability, T/C: 99.1%
[16]
  viability, T/C: 101%
[37]
  viability, T/C: 105%
[38]
  viability, T/C: 102%
[39]
  viability, T/C: 105%
[40]
  viability, T/C: 93%
[19]
  viability, T/C: 97.1%
[20]
  viability, T/C: 91.4%
[41]
  viability, T/C: 98.9%
[42]
  viability, T/C: 98.6%
[43]
  viability, T/C: 100%
[44]
  viability, T/C: 91.1%
[23]
  viability, T/C: 105%
[24]
  viability, T/C: 103%
[45]
  viability, T/C: 97.3%
[46]
  viability, T/C: 99.4%
[47]
  viability, T/C: 91.5%
[48]
  viability, T/C: 94.3%
